Assay results published in patent US9586951B2 (FUJIFILM Corporation, priority 2013, dated 2017).

Experiments:
ATM = target: T1, ATM (Homo sapiens, UniProt Q13315); assay: ATM inhibition test (phosphorylation of Chk2 generated by ionizing radiation, AlphaScreen SureFire); format: cell-based; conditions: phosphorylated Chk2 in NCI-H460 cells, ionizing radiation 8Gy, 1 hour after test compound treatment; read-out: ATM inhibitory activity
T1 construct: detecting phosphorylation of Chk2 in a human non-small cell lung cancer cell line NCI-H460 (ATCC company); host or cells: NCI-H460 human non-small cell lung cancer cells
T1 sequence (Q13315 whole entry): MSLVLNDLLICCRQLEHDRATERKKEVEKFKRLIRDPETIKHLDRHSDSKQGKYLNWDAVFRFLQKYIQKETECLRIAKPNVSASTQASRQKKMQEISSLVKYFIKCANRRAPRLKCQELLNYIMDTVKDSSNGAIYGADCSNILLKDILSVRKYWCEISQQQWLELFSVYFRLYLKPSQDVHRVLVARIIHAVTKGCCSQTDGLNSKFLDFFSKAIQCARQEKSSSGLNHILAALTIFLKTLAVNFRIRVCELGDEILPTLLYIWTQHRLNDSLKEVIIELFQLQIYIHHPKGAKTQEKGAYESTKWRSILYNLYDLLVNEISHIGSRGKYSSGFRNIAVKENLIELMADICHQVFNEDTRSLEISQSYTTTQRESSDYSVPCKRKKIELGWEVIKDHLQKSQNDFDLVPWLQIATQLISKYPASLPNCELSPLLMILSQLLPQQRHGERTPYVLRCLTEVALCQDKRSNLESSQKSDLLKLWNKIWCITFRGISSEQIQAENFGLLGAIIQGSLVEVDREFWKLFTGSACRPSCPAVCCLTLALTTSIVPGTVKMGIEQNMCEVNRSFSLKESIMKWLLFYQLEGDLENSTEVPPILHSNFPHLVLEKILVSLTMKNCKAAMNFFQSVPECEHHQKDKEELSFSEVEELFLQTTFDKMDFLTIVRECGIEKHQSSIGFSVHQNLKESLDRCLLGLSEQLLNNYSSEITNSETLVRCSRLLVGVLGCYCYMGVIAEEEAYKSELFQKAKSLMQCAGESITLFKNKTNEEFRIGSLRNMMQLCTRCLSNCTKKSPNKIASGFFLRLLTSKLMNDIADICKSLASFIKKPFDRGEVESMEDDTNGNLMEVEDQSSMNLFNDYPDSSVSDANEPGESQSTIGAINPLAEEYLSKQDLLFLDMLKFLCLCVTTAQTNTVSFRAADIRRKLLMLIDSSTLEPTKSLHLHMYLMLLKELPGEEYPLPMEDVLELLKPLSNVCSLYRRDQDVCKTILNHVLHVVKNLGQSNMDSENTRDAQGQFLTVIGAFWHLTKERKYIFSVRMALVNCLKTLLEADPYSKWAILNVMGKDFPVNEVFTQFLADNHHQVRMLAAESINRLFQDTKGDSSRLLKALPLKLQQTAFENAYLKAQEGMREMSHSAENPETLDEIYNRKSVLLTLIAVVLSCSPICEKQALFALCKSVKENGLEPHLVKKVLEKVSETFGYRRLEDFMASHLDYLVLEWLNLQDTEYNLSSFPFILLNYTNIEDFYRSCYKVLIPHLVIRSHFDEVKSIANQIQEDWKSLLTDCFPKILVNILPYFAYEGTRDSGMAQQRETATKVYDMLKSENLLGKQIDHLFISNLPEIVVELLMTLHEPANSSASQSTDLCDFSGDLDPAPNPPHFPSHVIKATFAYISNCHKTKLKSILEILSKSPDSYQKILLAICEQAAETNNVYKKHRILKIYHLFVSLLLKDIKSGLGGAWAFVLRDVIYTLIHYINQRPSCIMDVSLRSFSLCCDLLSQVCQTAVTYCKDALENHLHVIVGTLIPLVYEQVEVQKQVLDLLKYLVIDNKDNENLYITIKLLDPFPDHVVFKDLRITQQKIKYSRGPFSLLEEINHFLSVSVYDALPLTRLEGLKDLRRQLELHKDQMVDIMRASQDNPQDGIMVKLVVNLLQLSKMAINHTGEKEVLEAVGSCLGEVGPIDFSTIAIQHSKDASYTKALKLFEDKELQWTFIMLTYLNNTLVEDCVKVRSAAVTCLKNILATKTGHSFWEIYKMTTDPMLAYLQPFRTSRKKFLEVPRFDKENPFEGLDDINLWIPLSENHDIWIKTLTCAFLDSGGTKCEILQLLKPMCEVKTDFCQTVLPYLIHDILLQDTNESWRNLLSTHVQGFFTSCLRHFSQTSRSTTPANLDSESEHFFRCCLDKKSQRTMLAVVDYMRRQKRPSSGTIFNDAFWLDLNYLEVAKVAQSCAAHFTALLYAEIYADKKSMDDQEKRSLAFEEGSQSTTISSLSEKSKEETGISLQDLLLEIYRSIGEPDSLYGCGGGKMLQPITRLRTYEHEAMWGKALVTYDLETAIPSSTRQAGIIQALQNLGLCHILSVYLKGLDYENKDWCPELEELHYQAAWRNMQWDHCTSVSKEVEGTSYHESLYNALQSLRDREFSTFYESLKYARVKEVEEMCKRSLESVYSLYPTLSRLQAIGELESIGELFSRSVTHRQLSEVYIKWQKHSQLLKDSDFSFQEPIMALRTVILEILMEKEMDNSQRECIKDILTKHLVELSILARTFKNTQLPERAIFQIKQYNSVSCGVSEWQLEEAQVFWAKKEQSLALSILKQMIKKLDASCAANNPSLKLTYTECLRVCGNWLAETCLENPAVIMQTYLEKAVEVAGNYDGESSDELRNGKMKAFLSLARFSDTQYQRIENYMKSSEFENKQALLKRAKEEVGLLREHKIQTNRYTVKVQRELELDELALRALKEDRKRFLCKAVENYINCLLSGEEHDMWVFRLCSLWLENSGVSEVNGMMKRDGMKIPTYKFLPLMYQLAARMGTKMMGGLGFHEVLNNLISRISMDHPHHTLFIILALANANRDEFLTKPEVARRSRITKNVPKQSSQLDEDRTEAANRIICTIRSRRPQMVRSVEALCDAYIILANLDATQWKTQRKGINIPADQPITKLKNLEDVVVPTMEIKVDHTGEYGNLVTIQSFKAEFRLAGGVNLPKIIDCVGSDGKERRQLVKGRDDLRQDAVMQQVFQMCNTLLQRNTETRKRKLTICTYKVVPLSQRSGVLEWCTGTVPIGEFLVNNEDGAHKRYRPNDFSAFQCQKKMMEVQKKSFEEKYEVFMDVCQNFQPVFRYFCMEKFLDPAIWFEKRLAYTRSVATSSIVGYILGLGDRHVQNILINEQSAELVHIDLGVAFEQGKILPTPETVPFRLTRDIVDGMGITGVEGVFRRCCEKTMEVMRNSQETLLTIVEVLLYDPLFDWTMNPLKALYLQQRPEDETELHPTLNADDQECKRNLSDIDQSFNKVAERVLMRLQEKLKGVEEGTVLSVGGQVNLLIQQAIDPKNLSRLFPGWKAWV
How it was run: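 Phosphorylated Chk2 read by AlphaScreen SureFire in human non-small cell lung cancer NCI-H460 cells, 1 hour after 8Gy ionizing radiation at 37° C. Compound added 1 hour before irradiation. Percent inhibition normalised between irradiated and non-irradiated drug-untreated signals.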

[1] = system: human non-small cell lung cancer cell line NCI-H460; assay: Cell proliferation inhibition test by sensitivity-enhancing to ionizing radiation (Cell Titer Glo); format: cell-based; conditions: Homo sapiens, concentration in which SER became 2, NCI-H460 cells, ionizing radiation 2 Gy, cultured 120 hour
How it was run: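 Radiosensitisation measured as SER, a ratio of Cell Titer Glo luminescence in irradiated vs unirradiated plates relative to DMSO; SER2, the concentration yielding SER 2, came from sigmoidal regression. Compound (0.1% DMSO) was given 24 h post-seeding, 2 Gy applied 30 min later, then 120 hour culture at 37° C.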

Row | IC50 (ATM) | SMILES | SER2 (concentration at which the radiation sensitivity-enhancement ratio reaches 2) ([1]; NCI-H460, 120 h) | SER2 (concentration at which the radiation sensitivity-enhancement ratio reaches 2) [1]
1 | < 0.1 µM | [2H]C([2H])([2H])C(Nc1ccc2c(c1)Sc1cccc(-c3cc(N4CCOCC4)cc(=O)[nH]3)c1S2)c1cccc(F)n1 (stereo not shown) [Example 1-12-134, 4-Morpholino-6-(7-((2,2,2-trideutero-1-(6-fluoropyridin-2-yl)ethyl)amino)thianthren-1-yl) pyridin-2(1H)-one] | 100 to 500 nM | 
2 | < 0.1 µM | CCC(CN1CCOCC1)Nc1ccc2c(c1)Sc1cccc(-c3cc(N4CCOCC4)cc(=O)[nH]3)c1S2 (stereo not shown) [Example 1-13-1, 4-Morpholino-6-(7-((1-morpholinobutan-2-yl)amino)thianthren-1-yl)pyridin-2(1H)-one] | 100 to 500 nM | 
3 | < 0.1 µM | CC(CN1CCCCC1)Nc1ccc2c(c1)Sc1cccc(-c3cc(N4CCOCC4)cc(=O)[nH]3)c1S2 (stereo not shown) [Example 1-13-4] | 100 to 500 nM | 
4 | < 0.1 µM | CC(CN1C[C@@H](C)O[C@@H](C)C1)Nc1ccc2c(c1)Sc1cccc(-c3cc(N4CCOCC4)cc(=O)[nH]3)c1S2 (stereo partly drawn) [Example 1-13-12, 6-(7-((1-((2S,6R)-2,6- Dimethylmorpholino)propan-2-yl)amino)thianthren-1-yl)-4-morpholino pyridin-2(1H)-one] | 100 to 500 nM | 
5 | < 0.1 µM | CC(CN1CCN(c2ccccc2)CC1)Nc1ccc2c(c1)Sc1cccc(-c3cc(N4CCOCC4)cc(=O)[nH]3)c1S2 (stereo not shown) [Example 1-13-15, 4-Morpholino-6-(7-((1-(4-phenylpiperazin-1-yl)propan-2-yl)amino)thianthren-1-yl)pyridin-2 (1H)-one] | 100 to 500 nM | 
6 | < 0.1 µM | CC(CN1CCN(c2ccccn2)CC1)Nc1ccc2c(c1)Sc1cccc(-c3cc(N4CCOCC4)cc(=O)[nH]3)c1S2 (stereo not shown) [Example 1-13-17, 4-Morpholino-6-(7-((1-(4-(pyridin-2-yl)piperazin-1-yl)propan-2-yl)amino)thianthren-1-yl)pyridin-2 (1H)-one] | 100 to 500 nM | 
7 | < 0.1 µM | O=c1cc(N2CCOCC2)cc(-c2cccc3c2Sc2ccc(NCCN4CC5(COC5)C4)cc2S3)[nH]1 [Example 1-16-3, 6-(7-((2-(2-Oxa-6-azaspiro[3.3]heptan-6-yl)ethyl)amino)thianthren-1-yl)-4-morpholinopyridin-2(1H)-one] | 100 to 500 nM | 
8 | < 0.1 µM | CNCC(Nc1ccc2c(c1)Sc1cccc(-c3cc(N4CCOCC4)cc(=O)[nH]3)c1S2)c1cccc(C)n1 (stereo not shown) [Example 1-19-1, 6-(7-((2-(Methylamino)-1-(6-methylpyridin-2-yl)ethyl)amino)thianthren-1-yl)-4-morpholinopyridin-2(1H)-one] | 100 to 500 nM | 
9 | < 0.1 µM | CNCC(Nc1ccc2c(c1)Sc1cccc(-c3cc(N4CCOCC4)cc(=O)[nH]3)c1S2)c1cc(C)ccn1 (stereo not shown) [Example 1-19-3, 6-(7-((2-(Methylamino)-1-(4-methylpyridin-2-yl)ethyl)amino)thianthren-1-yl)-4-morpholinopyridin-2(1H)-one] | 100 to 500 nM | 
10 | < 0.1 µM | Cc1cccc(C(CCN(C)C)Nc2ccc3c(c2)Sc2cccc(-c4cc(N5CCOCC5)cc(=O)[nH]4)c2S3)n1 (stereo not shown) [Example 1-22-1, 6-(7-((3-(dimethylamino)-1-(6-methylpyridin-2-yl)propyl)amino)thianthren-1-yl)-4-morpholinopyridin-2(1H)-one] | 100 to 500 nM | 
11 | < 0.1 µM | Cc1cnc(C(CCN(C)C)Nc2ccc3c(c2)Sc2cccc(-c4cc(N5CCOCC5)cc(=O)[nH]4)c2S3)cn1 (stereo not shown) [Example 1-22-2, 6-(7-((3-(Dimethylamino)-1-(5-methylpyrazin-2-yl)propyl)amino)thianthren-1-yl)-4-morpholino pyridin-2 (1H)-one] | 100 to 500 nM | 
12 | < 0.1 µM | Cc1cccc(C(CN(C)C)Nc2ccc3c(c2)Sc2cccc(-c4cc(N5CCOCC5)cc(=O)[nH]4)c2S3)n1 (stereo not shown) [Example 1-22-3, 6-(7-((2-(Dimethylamino)-1-(6-methylpyridin-2-yl)ethyl)amino)thianthren-1-yl)-4-morpholino pyridin-2 (1H)-one] | < 100 nM | 
13 | < 0.1 µM | Cc1ccc(C(Nc2ccc3c(c2)Sc2cccc(-c4cc(N5CCOCC5)cc(=O)[nH]4)c2S3)C2CCCN(C)C2)nc1 (stereo not shown) [Example 1-22-10, 6-(7-(((1-Methylpiperidin-3-yl)(5-methylpyridin-2-yl)methyl)amino)thianthren-1-yl)-4-morpholino pyridin-2(1H)-one] | 100 to 500 nM | 
14 | < 0.1 µM | CCN(C)CCC(Nc1ccc2c(c1)Sc1cccc(-c3cc(N4CCOCC4)cc(=O)[nH]3)c1S2)c1cccc(C)n1 (stereo not shown) [Example 1-23-1, 6-(7-((3-(ethyl(methyl)amino)-1-(6-methylpyridin-2-yl)propyl)amino)thianthren-1-yl)-4-morpholinopyridin-2(1H)-one] | 100 to 500 nM | 
15 | < 0.1 µM | CCN(C)CCC(Nc1ccc2c(c1)Sc1cccc(-c3cc(N4CCOCC4)cc(=O)[nH]3)c1S2)c1cnc(C)cn1 (stereo not shown) [Example 1-23-2, 6-(7-((3-(Ethyl(methyl)amino)-1-(5-methylpyrazin-2-yl)propyl)amino)thianthren-1-yl)-4-morpholinopyridin-2(1H)-one] | 100 to 500 nM | 
16 | < 0.1 µM | O=c1cc(N2CCOCC2)cc(-c2cccc3c2Sc2ccc(NC4CCCN(Cc5cccnc5)C4)cc2S3)[nH]1 (stereo not shown) [Example 1-24-2, 4-Morpholine-6-(7-((1-(pyridin-3-ylmethyl)piperidin-3-yl)amino)thianthren-1-yl)pyridin-2 (1H)-one] | 100 to 500 nM | 
17 | < 0.1 µM | O=c1cc(N2CCOCC2)cc(-c2cccc3c2Sc2ccc(NC4CCN(Cc5cccnc5)CC4)cc2S3)[nH]1 [Example 1-24-17, 4-Morpholino-6-(7-((1-(pyridin-3-ylmethyl)piperidin-4-yl)amino)thianthren-1-yl)pyridin-2 (1H)-one] | 100 to 500 nM | 
18 | < 0.1 µM | O=c1cc(N2CCOCC2)cc(-c2cccc3c2Sc2ccc(NC4CCN(C5CC5)CC4)cc2S3)[nH]1 [Example 1-24-18, 6-(7-((1-Cyclopropylpiperidin-4-yl)amino)thianthren-1-yl)-4-morpholino pyridin-2(1H)-one] | 100 to 500 nM | 
19 | < 0.1 µM | COCCN1CCC(Nc2ccc3c(c2)Sc2cccc(-c4cc(N5CCOCC5)cc(=O)[nH]4)c2S3)CC1 [Example 1-26-1, 6-(7-((1-(2-methoxyethyl)piperidin-4-yl)amino)thianthren-1-yl)-4-morpholinopyridin-2(1H)-one] | 100 to 500 nM | 
20 | < 0.1 µM | CN1CCCC(Nc2ccc3c(c2)Sc2cccc(-c4cc(N5CCOCC5)cc(=O)[nH]4)c2S3)C1 (stereo not shown) [Example 1-31-2, 6-(7-((1-Methylpiperidin-3-yl)amino)thianthren-1-yl)-4-morpholinopyridin-2(1H)-one] | 100 to 500 nM | 
21 | < 0.1 µM | Cc1cccc(C(CCN2CCOCC2)Nc2ccc3c(c2)Sc2cccc(-c4cc(N5CCOCC5)cc(=O)[nH]4)c2S3)n1 (stereo not shown) [Example 1-34-4] | < 100 nM | 
22 | < 0.1 µM | Cc1ccc(C(Nc2ccc3c(c2)Sc2cccc(-c4cc(N5CCOCC5)cc(=O)[nH]4)c2S3)C2CCN(C)CC2)nc1 (stereo not shown) [Example 1-35, 6-(7-(((1-methylpiperidin-4-yl)(5-methylpyridin-2-yl)methyl)amino)thianthren-1-yl)-4-morpholinopyridin-2(1H)-one] | < 100 nM | 
23 | < 0.1 µM | CC(CCN1CCOCC1)Nc1ccc2c(c1)Sc1cccc(-c3cc(N4CCOCC4)cc(=O)[nH]3)c1S2 (stereo not shown) [Example 1-42-1, 4-Morpholino-6-(7-((4-morpholinobutan-2-yl)amino)thianthren-1-yl)pyridin-2(1H)-one] | 100 to 500 nM | 

Row | SMILES | IC50 (ATM) | SER2 (concentration at which the radiation sensitivity-enhancement ratio reaches 2) ([1]; NCI-H460, 120 h) | SER2 (concentration at which the radiation sensitivity-enhancement ratio reaches 2) [1]
24 | CC1CN(CCNc2ccc3c(c2)Sc2cccc(-c4cc(N5CCOCC5)cc(=O)[nH]4)c2S3)CCO1 (stereo not shown) [Example 1-16-6, 6-(7-((2-(2-Methylmorpholino)ethyl)amino)thianthren-1-yl)-4-morpholinopyridin-2(1H)-one] | < 0.1 µM |  | 100 to 500 nM
25 | CC1COCCN1CCNc1ccc2c(c1)Sc1cccc(-c3cc(N4CCOCC4)cc(=O)[nH]3)c1S2 (stereo not shown) [Example 1-16-7, 6-(7-((2-(3-Methylmorpholino)ethyl)amino)thianthren-1-yl)-4-morpholinopyridin-2(1H)-one] | < 0.1 µM |  | 100 to 500 nM
26 | O=c1cc(N2CCOCC2)cc(-c2cccc3c2Sc2ccc(NC(CF)CN4CCCCC4)cc2S3)[nH]1 (stereo not shown) [Example 1-41-2, 6-(7-((1-Fluoro-3-(piperidin-1-yl)propan-2-yl)amino)thianthren-1-yl)-4-morpholinopyridin-2(1H)-one] | < 0.1 µM |  | 100 to 500 nM
